Results published in ChEMBL document CHEMBL1614629, “Extrapolation of human pharmacokinetic parameters from rat, dog, and monkey data: Molecular properties associated with extrapolative success or failure” (J Pharm Sci, 2005).

How the values were obtained:
[1] = Clearance in rat after iv administration; assay type: ADME, organism-based; details: in vivo
[2] = Volume of distribution at steady state in rat after iv administration; assay type: ADME, organism-based; details: in vivo
[3] = Clearance in dog after iv administration; assay type: ADME, organism-based, Canis lupus familiaris; details: in vivo
[4] = Volume of distribution at steady state in dog after iv administration; assay type: ADME, organism-based, Canis lupus familiaris; details: in vivo, read-out: Vdss
[5] = Clearance in monkey after iv administration; assay type: ADME, organism-based; details: macaca, in vivo
[6] = Volume of distribution at steady state in monkey after iv administration; assay type: ADME, organism-based; details: macaca, in vivo, read-out: Vdss
[7] = Clearance in human after iv administration; assay type: ADME, organism-based; details: in vivo
[8] = Volume of distribution at steady state in human after iv administration; assay type: ADME, organism-based; details: in vivo, read-out: Vdss

Row | clearance [1] [mL/min/kg] | Vdss [2] [L/kg] | clearance [3] [mL/min/kg] | Vd [4] [L/kg] | clearance [5] [mL/min/kg] | Vd [6] [L/kg] | clearance [7] [mL/min/kg] | Vd [8] [L/kg] | SMILES
1 | 42 | 10 | 32 | 81 | 17 | 53 | 9.9 | 30 | C#CCCCC(=O)c1cc(C(C)(C)C)c(O)c(C(C)(C)C)c1 [TEBUFELONE]
2 | 22 | 1 | 6.6 | 0.77 | 8.3 | 0.71 | 3.5 | 0.71 | Cc1c(C)c2c(c(C)c1O)CCC(C)(COc1ccc(CC3SC(=O)NC3=O)cc1)O2 (stereo not given) [TROGLITAZONE]
3 | 4.2 | 0.66 | 3 | 0.31 | 4 | 0.15 | 0.11 | 0.15 | CCCC(CCC)C(=O)O [VALPROIC ACID]
4 | 25 | 12 | 22 | 2.3 | 7 | 1.5 | 12 | 24 | CC[C@]1(O)C[C@@H]2CN(CCc3c([nH]c4ccccc34)[C@@](C(=O)OC)(c3cc4c(cc3OC)N(C)[C@H]3[C@@](O)(C(=O)OC)[C@H](OC(C)=O)[C@]5(CC)C=CCN6CC[C@]43[C@@H]65)C2)C1 [VINBLASTINE]
5 | 2 | 0.41 | 9.8 | 3.1 | 4.8 | 1.3 | 1.8 | 8 | CC[C@]1(O)C[C@H]2CN(CCc3c([nH]c4ccccc34)[C@@](C(=O)OC)(c3cc4c(cc3OC)N(C=O)[C@H]3[C@@](O)(C(=O)OC)[C@H](OC(C)=O)[C@]5(CC)C=CCN6CC[C@]43[C@@H]65)C2)C1 [VINCRISTINE]

More lines, now with the values behind:

Row | SMILES | clearance [1] [mL/min/kg] | Vdss [2] [L/kg] | clearance [3] [mL/min/kg] | Vd [4] [L/kg] | clearance [5] [mL/min/kg] | Vd [6] [L/kg] | clearance [7] [mL/min/kg] | Vd [8] [L/kg]
6 | Nc1nc(/C(=N/O)C(=O)N[C@@H]2C(=O)N3C(C(=O)O)=C(/C=C4\CCN(CC(F)(F)F)C4=O)CS[C@H]23)cs1 [RO 25-6833] | 0.95 | 0.16 | 2.7 | 0.24 | 0.78 | 0.12 | 0.38 | 0.12
7 | Cc1cccnc1NS(=O)(=O)c1ccc(C#Cc2ccc(O)c(C(=O)O)c2)cc1 [SUSALIMOD] | 62 | 1.2 | 20 | 0.19 | 2 | 0.08 | 0.09 | 0.12
8 | O=P(O)(O)C(Sc1ccc(Cl)cc1)P(=O)(O)O [TILUDRONIC ACID] | 3.3 | 15 | 0.5 | 3 | 0.83 | 7 | 0.3 | 1
9 | CN1C(=O)OC(C)(C)C1=O [TRIMETHADIONE] | 5.7 | 0.66 | 2.9 | 0.63 | 1.6 | 0.66 | 0.7 | 0.61
10 | CC(=O)CC(c1ccccc1)c1c(O)c2ccccc2oc1=O (stereo not given) [WARFARIN] | 0.36 | 0.22 | 0.3 | 0.28 | 0.13 | 0.11 | 0.04 | 0.11
